In patent US12281122B1, “PI3K inhibitors” (Cogent Biosciences, Inc., priority 2023, dated 2025):

What was measured:
[1] = test system: T47D (PI3Kα-H1047R) cell line; experiment: HTRF phospho-AKT(S473) cell assay in T47D cells; type: cell-based, human
Procedure, shortened: (§1)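 HTRF read-out of phospho-AKT(S473) in lysates gave IC50 values after 2 h compound exposure at 37° C. Dose series was 12 points at 1:3, topping at 5 μM for T47D and 10 μM for SKBR3. Only SKBR3 received 70 ng/ml PDGF-BB during the last 15 minutes.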

[2] = test system: SKBR3 (PI3Kα-Wild Type) cell line; experiment: HTRF phospho-AKT(S473) cell assay in SKBR3 cells; type: cell-based, human
Procedure, shortened: as §1

[3] = Homo sapiens; HTRF phospho-AKT(S473), T47D (PI3Kα-H1047R) cells, 2 hours compound incubation
[4] = Homo sapiens, SK-BR-3; HTRF phospho-AKT(S473), SKBR3 (PI3Kα-Wild Type) cells, 2 hours compound incubation, PDGF-BB stimulated
[5] = Homo sapiens; T47D (PI3Kα-H1047R) cells, HTRF phospho-AKT(S473), 2 hours compound incubation
[6] = Homo sapiens, SK-BR-3; SKBR3 (PI3Kα-Wild Type) cells, HTRF phospho-AKT(S473), 2 hours compound incubation, PDGF-BB stimulated

Structure (SMILES) | IC50 [1, 3] [nM] | IC50 [2, 4] [nM] | IC50 [1, 5] [nM] | IC50 [2, 6] [nM]
Cc1cc([C@@H](C)Nc2ccc(Cl)nc2C(=O)NS(C)(=O)=O)c2nc(N3CCC(c4ccn(C(F)(F)F)n4)CC3)n(C)c(=O)c2c1 [Compound 445, (R)-6-chloro-3-((1-(3,6-dimethyl-4-oxo-2-(4-(1-(trifluoromethyl)-1H-pyrazol-3-yl)piperidin-1-yl)-3,4-dihydroquinazolin-8-yl)ethyl)amino)-N-(methylsulfonyl) picolinamide] | 250 to 500 | ≥ 5000 |  | 
Cc1cc([C@@H](C)Nc2ccc(Cl)nc2C(=O)NS(C)(=O)=O)c2nc(N3CCC4(CCN(c5ccn(C)n5)CC4)C3)n(C)c(=O)c2c1 [Compound 358, (R)-6-chloro-3-((1-(3,6-dimethyl-2-(8-(1-methyl-1H-pyrazol-3-yl)-2,8-diazaspiro[4.5]decan-2-yl)-4-oxo-3,4-dihydroquinazolin-8-yl)ethyl)amino)-N-(methylsulfonyl) picolinamide] |  |  | < 250 | 1000 to 5000
COc1ncc([C@H]2[C@@H]3CN(c4nc5c([C@@H](C)Nc6ccc(Cl)nc6C(=O)NS(C)(=O)=O)cc(C)cc5c(=O)n4C)C[C@@H]32)cn1 [Compound 483, 6-chloro-3-(((R)-1-(2-((1R,5S,6S)-6-(2-methoxypyrimidin-5-yl)-3-azabicyclo[3.1.0]hexan-3-yl)-3,6-dimethyl-4-oxo-3,4-dihydroquinazolin-8-yl)ethyl)amino)-N-(methylsulfonyl) picolinamide] | < 250 | 1000 to 5000 |  | 
Cc1cc([C@@H](C)Nc2ccc(Cl)nc2C(=O)NS(C)(=O)=O)c2nc(N3Cc4cn(-c5ccnc(C)c5)nc4C3)n(C)c(=O)c2c1 [Compound 146, (R)-6-chloro-3-((1-(3,6-dimethyl-2-(2-(2-methylpyridin-4-yl)-2,6-dihydropyrrolo[3,4-c]pyrazol-5(4H)-yl)-4-oxo-3,4-dihydroquinazolin-8-yl)ethyl)amino)-N-(methylsulfonyl) picolinamide] |  |  | < 250 | 1000 to 5000
Cc1cc([C@@H](C)Nc2ccc(Cl)nc2C(=O)NS(C)(=O)=O)c2nc(N3C[C@@H]4[C@H](C3)[C@H]4c3cn(C(C)C)nn3)n(C)c(=O)c2c1 [Compound 528, 6-chloro-3-(((R)-1-(2-((1R,5S,6R)-6-(1-isopropyl-1H-1,2,3-triazol-4-yl)-3-azabicyclo[3.1.0]hexan-3-yl)-3,6-dimethyl-4-oxo-3,4-dihydroquinazolin-8-yl)ethyl)amino)-N-(methylsulfonyl) picolinamide] | < 250 | 1000 to 5000 |  | 
Cc1cc([C@@H](C)Nc2ccc(Cl)nc2C(=O)NS(C)(=O)=O)c2nc(N3C[C@@H]4C[C@H]3CN4c3ncc(Cl)cn3)n(C)c(=O)c2c1 [Compound 667, 6-chloro-3-(((R)-1-(2-((1S,4S)-5-(5-chloropyrimidin-2-yl)-2,5-diazabicyclo [2.2.1]heptan-2-yl)-3,6-dimethyl-4-oxo-3,4-dihydroquinazolin-8-yl)ethyl)amino)-N-(methylsulfonyl) picolinamide] | 500 to 1000 | ≥ 5000 |  | 
Cc1cc([C@@H](C)Nc2ccc(Cl)nc2C(=O)NS(C)(=O)=O)c2nc(N3CCC4(CCc5cn(C)nc54)CC3)n(C)c(=O)c2c1 [Compound 673, (R)-6-chloro-3-((1-(3,6-dimethyl-2-(2-methyl-4,5-dihydro-2H-spiro [cyclopenta[c]pyrazole-6,4′-piperidin]-1′-yl)-4-oxo-3,4-dihydroquinazolin-8-yl)ethyl)amino)-N-(methylsulfonyl) picolinamide] | 250 to 500 | ≥ 5000 |  | 
CCn1c(N2CCc3nn(C)cc3C2)nc2c([C@@H](C)Nc3ccc(Cl)nc3C(=O)NS(C)(=O)=O)cc(C)cc2c1=O [Compound 546, (R)-6-chloro-3-((1-(3-ethyl-6-methyl-2-(2-methyl-2,4,6,7-tetrahydro-5H-pyrazolo[4,3-c]pyridin-5-yl)-4-oxo-3,4-dihydroquinazolin-8-yl)ethyl)amino)-N-(methylsulfonyl) picolinamide] | < 250 | 1000 to 5000 |  | 
Cc1ccc(C2CCN(c3nc4c([C@@H](C)Nc5ccc(Cl)nc5C(=O)NS(C)(=O)=O)cc(F)cc4c(=O)n3C)CC2)cn1 [Compound 365, (R)-6-chloro-3-((1-(6-fluoro-3-methyl-2-(4-(6-methylpyridin-3-yl)piperidin-1-yl)-4-oxo-3,4-dihydroquinazolin-8-yl)ethyl)amino)-N-(methylsulfonyl) picolinamide] |  |  | < 250 | 1000 to 5000
COc1cc(C2CCN(c3nc4c([C@@H](C)Nc5ccc(Cl)nc5C(=O)NS(C)(=O)=O)cc(C)cc4c(=O)n3C)CC2)n(C)n1 [Compound 325, (R)-6-chloro-3-((1-(2-(4-(3-methoxy-1-methyl-1H-pyrazol-5-yl)piperidin-1-yl)-3,6-dimethyl-4-oxo-3,4-dihydroquinazolin-8-yl)ethyl)amino)-N-(methylsulfonyl) picolinamide] |  |  | < 250 | 1000 to 5000
Cc1cc([C@@H](C)Nc2ccc(Cl)nc2C(=O)NS(C)(=O)=O)c2nc(N3CCC(c4cn(C)nn4)CC3)n(C)c(=O)c2c1 [Compound 480, (R)-6-chloro-3-((1-(3,6-dimethyl-2-(4-(1-methyl-1H-1,2,3-triazol-4-yl)piperidin-1-yl)-4-oxo-3,4-dihydroquinazolin-8-yl)ethyl)amino)-N-(methylsulfonyl) picolinamide] | < 250 | 1000 to 5000 |  | 
Cc1cc([C@@H](C)Nc2ccc(Cl)nc2C(=O)NS(C)(=O)=O)c2nc(N3CCC(c4ccn(C5CC5)n4)CC3)n(C)c(=O)c2c1 [Compound 267, (R)-6-chloro-3-((1-(2-(4-(1-cyclopropyl-1H-pyrazol-3-yl)piperidin-1-yl)-3,6-dimethyl-4-oxo-3,4-dihydroquinazolin-8-yl)ethyl)amino)-N-(methylsulfonyl) picolinamide] |  |  | < 250 | 1000 to 5000
Cc1cc([C@@H](C)Nc2ccc(Cl)nc2C(=O)NS(C)(=O)=O)c2nc(N3CCC[C@H](c4ccc(N)cn4)C3)n(C)c(=O)c2c1 (relative stereo) [Compound 307, 3-(((R)-1-(2-((R*)-3-(5-aminopyridin-2-yl)piperidin-1-yl)-3,6-dimethyl-4-oxo-3,4-dihydroquinazolin-8-yl)ethyl)amino)-6-chloro-N-(methylsulfonyl) picolinamide] |  |  | < 250 | ≥ 5000
Cc1cc([C@@H](C)Nc2ccc(Cl)nc2C(=O)NS(C)(=O)=O)c2nc(N3CCN(c4ncc(C#N)cc4F)CC3)n(C)c(=O)c2c1 [Compound 262, (R)-6-chloro-3-((1-(2-(4-(5-cyano-3-fluoropyridin-2-yl)piperazin-1-yl)-3,6-dimethyl-4-oxo-3,4-dihydroquinazolin-8-yl)ethyl)amino)-N-(methylsulfonyl) picolinamide] |  |  | < 250 | 1000 to 5000

Next, values leading:

IC50 [1, 3] [nM] | IC50 [2, 4] [nM] | IC50 [1, 5] [nM] | IC50 [2, 6] [nM] | Structure (SMILES)
< 250 | 1000 to 5000 |  |  | Cc1cc([C@@H](C)Nc2ccc(Cl)nc2C(=O)NS(C)(=O)=O)c2nc(-c3ccc4nn(CCO)cc4c3)n(C)c(=O)c2c1 [Compound 797, (R)-6-chloro-3-((1-(2-(2-(2-hydroxyethyl)-2H-indazol-5-yl)-3,6-dimethyl-4-oxo-3,4-dihydroquinazolin-8-yl)ethyl)amino)-N-(methylsulfonyl) picolinamide]
< 250 | 1000 to 5000 |  |  | Cc1cc([C@@H](C)Nc2ccc(Cl)nc2C(=O)NS(C)(=O)=O)c2nc(N3CCO[C@H](c4ccccc4)C3)n(C)c(=O)c2c1 [Compound 689, 6-chloro-3-(((R)-1-(3,6-dimethyl-4-oxo-2-((R)-2-phenylmorpholino)-3,4-dihydroquinazolin-8-yl)ethyl)amino)-N-(methylsulfonyl) picolinamide]
250 to 500 | ≥ 5000 |  |  | Cc1cc([C@@H](C)Nc2ccc(Cl)nc2C(=O)NS(C)(=O)=O)c2nc(N3CCC(Oc4ccccn4)CC3)n(C)c(=O)c2c1 [Compound 694, (R)-6-chloro-3-((1-(3,6-dimethyl-4-oxo-2-(4-(pyridin-2-yloxy)piperidin-1-yl)-3,4-dihydroquinazolin-8-yl)ethyl)amino)-N-(methylsulfonyl) picolinamide]
250 to 500 | ≥ 5000 |  |  | Cc1cc([C@@H](C)Nc2ccc(Cl)nc2C(=O)NS(C)(=O)=O)c2nc(N3CCC(c4nn(C)cc4Cl)CC3)n(C)c(=O)c2c1 [Compound 702, (R)-6-chloro-3-((1-(2-(4-(4-chloro-1-methyl-1H-pyrazol-3-yl)piperidin-1-yl)-3,6-dimethyl-4-oxo-3,4-dihydroquinazolin-8-yl)ethyl)amino)-N-(methylsulfonyl) picolinamide]
250 to 500 | 1000 to 5000 |  |  | [2H]C([2H])([2H])n1ccc([C@H]2[C@@H]3CN(c4nc5c([C@@H](C)Nc6ccc(Cl)nc6C(=O)NS(C)(=O)=O)cc(C)cc5c(=O)n4C4CC4)C[C@@H]32)n1 [Compound 734, 6-chloro-3-(((R)-1-(3-cyclopropyl-6-methyl-2-((1R,5S,6R)-6-(1-(methyl-d3)-1H-pyrazol-3-yl)-3-azabicyclo[3.1.0]hexan-3-yl)-4-oxo-3,4-dihydroquinazolin-8-yl)ethyl)amino)-N-(methylsulfonyl) picolinamide]
< 250 | 1000 to 5000 |  |  | CCn1c(N2Cc3cn(CC(F)(F)F)nc3C2)nc2c([C@@H](C)Nc3ccc(Cl)nc3C(=O)NS(C)(=O)=O)cc(C)cc2c1=O [Compound 732, (R)-6-chloro-3-((1-(3-ethyl-6-methyl-4-oxo-2-(2-(2,2,2-trifluoroethyl)-2,6-dihydropyrrolo[3,4-c]pyrazol-5(4H)-yl)-3,4-dihydroquinazolin-8-yl)ethyl)amino)-N-(methylsulfonyl) picolinamide]
